“Also recorded” adds a separate entry of the source. Non-standard residues stand in square brackets, D forms with d. No end group written: not given here. NMeL = CN[C@@H](CC(C)C)C(=O)O; Aib = CC(C)(N)C(=O)O
What was measured:
[1] = NMR (ROESY) determination of cis/trans conformer populations of the Met-Xaa peptide bond; format: physicochemical; settings: in solution
Source text: NMR spectroscopy is the best method for detection of cis/trans prolyl isomerization in a peptide. AAx-Pro cis/trans isomerization (where AAx is any adjacent amino acid residue) is detectable via two resonance frequencies in the NMR spectra per nuclear spin in the proximity of the isomerizing bond. Rotating-Frame NOE Spectroscopy (ROESY) was used to analyze EP67 (150 msec mixing time) in DMSO-d6. Characteristic NOE patterns readily discriminate the resonances arising from the cis and trans conformers allowing for specific assignments of each. Also, the relative populations of each conformer can be determined by integration of the separate peak volumes. Short ^1H-^1H distances (NOEs) between the alpha proton of AAx and the alpha proton of Pro are diagnostic of the cis AAx-Pro peptide bond. On the other hand, an observed NOE between the alpha proton of AAx and the delta protons of Pro are diagnostic of the trans AAx-Pro peptide bond.
where AA and AA′ are adjacent amino acids.
Analog peptides can be analyzed by NMR spectroscopy to verify structure and ascertain cis/trans conformer ratios of the Pro-substituted analogs. Special attention should be paid to the angles formed about α-carbon […]) and carbonyl carbon (Ψ and ω bonds) in the Met residue to the N-terminus of the substituted Pro residues. […]

human monocytes = assay: Differentiation/maturation of human monocytes into macrophages in vitro (light microscopy); format: cell-based
Protocol: To assess the binding of EP67 analogs to APCs and subsequent biological activity on these cells, peptides were assayed for their ability to elicit the activation of monocytes in vitro and to drive the differentiation/maturation of human monocytes into macrophages and subsequently dendritic cells.
Briefly, monocytes were harvested from human peripheral blood mononuclear cells. The human monocytes were incubated at 37 degrees C. for 24 hrs in media the presence of PBS, 100 μg/ml of EP67, 100 μg/ml of EP144, and 100 μg/ml of EP145. The cells were also incubated with for 48 hrs with sEP67 as a control. The cells were then photographed under light microscopy at 20× or 40× magnification. […] Panels A-C & G are at 20× magnification and Panels D-E are at 40× magnification.

[2] = system: human and porcine monocytes; settings: cited from earlier work
[3] = system: C5aR-bearing macrophages vs. C5aR-bearing neutrophils; assay: Bioselectivity: cytokine release from macrophages vs. MPO release from neutrophils; format: cell-based; settings: antilog[(−Δmacrophage)−(−Δneutrophil)], relative to C5a set at 1
Source text: 2. Potency. Analog potency will be measured by half maximal effective concentration (EC50); i.e., the concentration of the analog to induce a response halfway between baseline and maximum effect. EC50 values for each analog be determined in two separate assays: cytokine release from macrophages and MPO release from neutrophils.
In macrophages, we will measure the release of the TH1 cytokines IL-6, TNFα, and INFγ in accordance to our previously published methods (Morgan et al. Enhancement of In Vivo and In Vitro Immune Functions by a Conformationally Biased, Response-Selective Agonist of Human C5a: Implications for a Novel Adjuvant in Vaccine Design. Vaccine 28:463-469, 2010; Morgan et al. A novel adjuvant for vaccine development in the aged. Vaccine 28:8275-8279, 2010). These cytokines are consistently released in readily measurable amounts from macrophages (as well as monocytes and dendritic cells) and will be representative of what we have seen with EP67 and consistent with the nature of the supporting data presented above. Briefly, macrophages will be incubated in the presence of various concentrations of analogs (10, 50, 100, 200 μg/ml) in standard cell culture conditions for 6, 12, and 24, hrs. […]
3. […] Analog selectivity for cytokine release from macrophages vs. MPO release from neutrophils will be determined by the following equation: […]

[4] = system: human and mouse macrophages; settings: cited from earlier work
[5] = 100 μg/ml, 37 degrees C., 24 hrs

YSFKDM(Aib)LaR (YSFKDM[Aib]L[dA]R-OH) [EP144, EP67 analog with Pro substituted with 2-aminoisobutyric acid and MeL with Leu]
cis:trans conformer ratio [1]: all-trans | differentiation of human monocytes to macrophages (adhesion to substrate and flattening) (human monocytes; [5]): drive the differentiation of human monocytes to macrophages; also recorded: monocytes mature into macrophages

Tyr-Ser-Phe-Lys-Asp-Met-Pro-(MethylLeu)-D-Ala-Arg (YSFKDMP[NMeL][dA]R) [EP67]
necrosis and apoptosis of the macrophages/dendritic cells once generated [2]: decreases necrosis and apoptosis | differentiation of monocytes to macrophages and dendritic cells ([2]; human and porcine monocytes): induces the differentiation of human and porcine monocytes to macrophages and dendritic cells | differentiation of human monocytes to macrophages (adhesion to substrate and flattening) (human monocytes; [5]): monocytes mature into macrophages | selectivity factor for macrophage activity over that of neutrophils [3]: 2951 | release of Th1 cytokines (IL-1β, IL-6, IL-8, IL-12, TNFα, IFNγ) [4]: induces the release of T helper type 1 (Th1) cytokines | release of Th2 cytokines (IL-2, IL-4, IL-5, IL-10) [4]: few T helper type 2 (Th2) cytokines

M(MeL)RFPDaYKS (M[NMeL]RFPD[dA]YKS) [sEP67]
differentiation of human monocytes to macrophages (adhesion to substrate and flattening) (human monocytes; control peptide, 48 hrs): do not exhibit this phenotype

YSFKDM(dmP)(MeL)aR (YSFKDMXLAR; 5,5'-dimethylproline, N-methyl-Leu, D-Ala; MOD_RES (7)..(7) Xaa is 5,5′-dimethylproline; MOD_RES (8)..(8) N-methyl Leu; MOD_RES (9)..(9) D-Ala) [EP145, EP67 analog with Pro substituted with 5,5′-dimethylproline]
differentiation of human monocytes to macrophages (adhesion to substrate and flattening) (human monocytes; [5]): drive the differentiation of human monocytes to macrophages; also recorded: monocytes mature into macrophages

B1: C5a: short (74 residues in human) glycoprotein generated by enzymatic cleavage of complement C5 (protein, UniProt P01031 678-751, looked up)
C5a anaphylatoxin: TLQKKIEEIAAKYKHSVVKKCCYDGACVNNDETCEQRAARISLGPRCIKAFTECCVVASQLRANISHKDMQLGR
modifications: C5a anaphylatoxin
notes: short (74 residues in human) glycoprotein generated by enzymatic cleavage of complement C5
selectivity factor for macrophage activity over that of neutrophils [3]: 1
